The source of these data is patent US20130266636A1, “METHODS FOR BLOCKING CELL PROLIFERATION AND TREATING DISEASES AND CONDITIONS RESPONSIVE TO CELL GROWTH INHIBITION” (THE REGENTS OF THE UNIVERSITY OF CALIFORNIA, priority 2010, published 2013).

“Also recorded” adds a separate entry of the source.

One assay deals with XPA-1 cells. Briefly: Cell cycle analysis, bright field and confocal microscopy of XPA-1 cells. The format is cell-based, human. The protocol: FIG. 38. […] FIG. 38(a) Bright field images (scale bar, 20 μm), cell cycle analysis and confocal microscopy images (scale bar, 10 μm, laminB in red and DNA in blue) of XPA-1 cells treated for 20 hours with the allosteric RAF inhibitor KG5, the ATP-competitive inhibitor Sorafenib, the MEK inhibitor PD0325901, the control compound KG1 at 5 μM or paclitaxel at 200 nM. Cells were harvested after 20 hours and the cell cycle stage was determined by flow cytometry and confocal microscopy. White arrows indicate cells arrested at pro-metaphase. Scale bars, 10 μm. FIG. 38(b) Representative confocal microscopy images of untreated XPA-1 tumor cells undergoing mitosis (left image) and XPA-1 cell arrested with KG5 at pro-metaphase (right image). Cells were stained with α-tubulin in red and DNA in blue. Scale bar, 10 μm. FIG. 38(c) XPA-1 cells transfected with a vector control or active MEK were treated with 1 μM KG5 for 20 hours or left untreated and the G2/M population was quantified by flow cytometry. Error bars represent s.d. (n=3); * two tailed p value=0.00063 using a Mann Whitney U test. FIG. 38(d) Immunoblot analysis of XPA-1 cells untreated or treated with 1 μM KG5 for 18 hours. Data are representative of four independent experiments. […] Error bars represent s.d. (n=3); * two tailed p value=0.010 using a Mann Whitney U test. Inset, Immunoblot analysis of HCT-116 cells untreated or treated with 1 μM KG5 for 18 hours.
FIG. 39. […] FIG. 39 graphically illustrates cell cycle analysis of XPA-1 cells treated with the allosteric RAF inhibitor KG5, the microtubule stabilizer paclitaxel, or the ATP-competitive RAF inhibitors sorafenib, L-779450, GW 5074, and ZM-336372. Cells were harvested after 6, 18, 24, 48 and 72 hours and the percentages of cells in G2/M and SubG1 were determined by flow cytometry. Data are representative of three independent experiments.
Cell cycle analysis was performed by flow cytometry following propidium iodide staining. Briefly, cells were harvested, fixed with ice cold methanol, treated for 45 min with 10 μg/ml of RNase and resuspended in PBS containing 10 μg/ml of PI, and analyzed by flow cytometry. Cell cycle analysis was performed in cells treated for 18 hours with the allosteric RAF inhibitor KG5, the ATP-competitive RAF inhibitors: sorafenib, L-779450, GW5074, and ZM-336372, the MEK inhibitor (PD0325901) at […] concentration or paclitaxel at 100 nM.

For the next assay, the system named is Plk1. Briefly: Plk1 localization, confocal microscopy and CenpF immunoprecipitates. The format is cell-based, human. The text has this: FIG. 46. CRAF regulates Plk1 activity and localization. FIG. 46(a) Plk1 kinase activity assay performed in WT and CRAF−/− MEFs. Error bars represent s.d. (n=3); * two tailed p value=0.029 using Mann Whitney U test. FIG. 46(b) Immunoblot analysis of XPA-1 cells asynchronous or arrested in mitosis by treatment with KG5, nocodazole or paclitaxel (referred to as Ncdzl and Ptxl respectively). pPlk1 refers to phospho-T210 Plk1 and pHH3 refers to phospho-Histone H3. Data are representative of three independent experiments. FIG. 46(c) Plk1 kinase activity assay performed in HCT-116 cells treated with nocodazole or nocodazole and KG5. Error bars represent s.d. (n=2); * two tailed p value=0.002 using Mann Whitney U test. FIG. 46(d) Immunoblot analysis of CenpF immunoprecipitates from HCT-116 cells untreated or treated with KG5. Data are representative of three independent experiments. FIG. 46(e) Confocal microscopy images of XPA-1 cell at prophase (upper panel), pro-metaphase control untreated (middle panel) or treated with KG5 (lower panel). Cells were stained for phospho-T210 Plk1 (in green), a tubulin (in red) and DNA (TOPRO-3™ in blue). Thick white arrows indicate localization of pPlk1 at the mitotic spindle pole and narrow white arrows indicate localization of pPlk1 at the kinetochores. Scale bar, 10 p.m. […]

For assay [1], the system named is p21-activated kinase (PAK). The following applies: inferred from MEK S298; cited from earlier work.
In assay [2] the test system is human breast (MDA-MB-231) carcinoma cell line. Kind of assay: Cell viability assay in MDA-MB-231 cells. Type of assay: cell-based.

Consider `CSc1nc(N)cc(Oc2ccc(-c3nnc(Nc4cccc(C(F)(F)F)c4)[nH]3)cc2)n1` [KG5], for which, in the assay with XPA-1 cells (XPA-1 cells transfected with active MEK, 1 μM KG5, 20 hours), the “rescue of KG5 effect on cell proliferation by ectopic active MEK (G2/M population)” value is “failed to rescue”. Also, in the assay on XPA-1 cells (XPA-1 cells, 20 hours), the “arrest at pro-metaphase (confocal microscopy)” value is reported as “arrests cells at pro-metaphase” and the “cell cycle arrest in G2/M (flow cytometry)” value was “arrested in G2/M; also recorded: arrests cells in G2/M; also recorded: induces a G2/M arrest followed by cell death”. For the same compound, the “cell appearance and mitotic function (bright field images)” value with XPA-1 cells (XPA-1 cells, 20 hours, same concentration (5 μM, FIG. 38a)) was “look arrested in mitosis; also recorded: rounded and arrested in mitosis”. Also, in the assay on Plk1, the “Plk1 localization to the spindle pole” value was “no effect on Plk1 localization to the spindle pole” and the “accumulation of active Plk1 at the kinetochores” value is “prevented the subsequent accumulation of active Plk1 at the kinetochores”. Besides, the PAK activity result in assay [1] is reported as “does not directly inhibit PAK activity”. The cell viability result in assay [2] (MDA-MB-231) is reported as “decrease cell viability”. Moreover, the EC50 entry in assay [2] (MDA-MB-231 breast cancer cell viability assays) is “approach picomolar (pM) EC50s”.
